Results: patent US20120189673A1, “POLYPEPTIDES AND USES THEREOF” (priority 2009, published 2012)
Entries after “also recorded” stand apart in the source; their conditions may differ.

Key:
[1] = system: E. coli; assay: Complement (C1q, C5b-9/MAC, C3a) binding to E. coli in citrate plasma (immunoblot, flow cytometry); type: cell-based, Escherichia coli; settings: citrate plasma with GGL27 at 3 μM
Protocol: (§1) Flow cytometry analysis—Fifty μl of bacteria (1-2×10^6 cfu) were incubated with 450 μl of human plasma either alone or supplemented with GGL27 (at 3 μM). Samples were incubated for 30 min or 1 h at 37° C., divided into two equal parts, centrifuged, washed with PBS, and resuspended in 100 μl PBS with rabbit polyclonal antibodies against either LGE27 (25), a C-terminal epitope of human C3a, or rabbit polyclonal antibodies against C1q (both at 1:100). The mixtures were subsequently incubated for 1 h at room temperature. Bacteria were pelleted and washed twice with PBS, incubated in 100 μl PBS with goat anti rabbit IgG FITC-labeled antibodies (1:500, Sigma) for 30 min at room temperature and washed twice with PBS. In another experiment bacteria were incubated for 1 h in citrate plasma together with 3 μM TAMRA-labeled GGL27 peptide, then pelleted and washed twice with PBS. Flow cytometry analysis (Becton-Dickinson, Franklin Lakes, N.J.) was performed using a FACS-Calibur flow cytometry system equipped with a 15 mW argon laser turned a 488 nm. The bacterial population was selected by gating with appropriate settings of forward scatter (FSC) and sideward scatter (SSC).
SDS-PAGE and immunoblotting—Human citrate plasma (450 μl) was incubated with 50 μl bacteria (1-2×10^9 cfu) either alone or supplemented with the peptide GGL27 at 3 μM. The mixture was incubated for 30 min or 1 h at 37° C., centrifuged, and supernatants and bacteria collected. The bacterial pellet was washed with PBS and bound proteins eluted with 0.1 M glycine-HCl, pH 2.0. The pH of the eluted material was raised to 7.5 with 1 M Tris. Eluted proteins were precipitated by addition of 1 volume of trichloroacetic acid (TCA) to 4 volumes of sample, followed by incubation for 30 min on ice and centrifugation at 15 000 g (4° C. for 20 min). Precipitated material and supernatants were dissolved in SDS sample buffer and analyzed under reducing conditions by SDS-PAGE on 16.5% Tris-tricine gels (Clear PAGE™, C.B.S Scientific). Proteins and peptides were transferred to nitrocellulose membranes (Hybond-C). […]

[2] = Liposome leakage assay (carboxyfluorescein release); settings: for CF release from liposomes: 10 mM Tris-buffer; for share of the maximal CF release: within 5-10 minutes, 1 μM of peptides
Description: Liposome preparation and leakage assay. The liposomes investigated were either zwitterionic (DOPC/cholesterol 60/40 mol/mol or DOPC without cholesterol) or anionic (DOPE/DOPG 75/25 mol/mol). DOPG (1,2-Dioleoyl-sn-Glycero-3-Phosphoglycerol, monosodium salt), DOPC (1,2-dioleoyl-sn-Glycero-3-phosphocholine), and DOPE (1,2-dioleoyl-sn-Glycero-3-phosphoetanolamine) were all from Avanti Polar Lipids (Alabaster, USA) and of >99% purity, while cholesterol (>99% purity), was from Sigma-Aldrich (St. Louis, USA). Due to the long, symmetric and unsaturated acyl chains of these phospholipids, several methodological advantages are reached. In particular, membrane cohesion is good, which facilitates very stable, unilamellar, and largely defect-free liposomes (observed from cryo-TEM) and well defined supported lipid bilayers (observed by ellipsometry and AFM), allowing detailed values on leakage and adsorption density to be obtained. The lipid mixtures were dissolved in chloroform, after which solvent was removed by evaporation under vacuum overnight. Subsequently, 10 mM Tris buffer, pH 7.4, was added together with 0.1 M carboxyfluorescein (CF) (Sigma, St. Louis, USA). After hydration, the lipid mixture was subjected to eight freeze-thaw cycles consisting of freezing in liquid nitrogen and heating to 60° C. Unilamellar liposomes of about Ø140 nm were generated by multiple extrusions through polycarbonate filters (pore size 100 nm) mounted in a LipoFast miniextruder (Avestin, Ottawa, Canada) at 22° C. Untrapped CF was removed by two subsequent gel filtrations (Sephadex G-50, GE Healthcare, Uppsala, Sweden) at 22° C., with Tris buffer as eluent. CF release from the liposomes was determined by monitoring the emitted fluorescence at 520 nm from a liposome dispersion (10 mM lipid in 10 mM Tris, pH 7.4). An absolute leakage scale was obtained by disrupting the liposomes at the end of each experiment through addition of 0.8 mM Triton X-100 (Sigma-Aldrich, St. Louis, USA). A SPEX-fluorolog 1650 0.22-m double spectrometer (SPEX Industries, Edison, USA) was used for the liposome leakage assay in Tris buffer in the absence and presence of liposomes under conditions described above. Measurements were performed in triplicate at 37° C.
Liposome preparation and leakage assay—The liposomes investigated were anionic (DOPE/DOPG 75125 mol/mol). DOPG (1,2-Dioleoyl-sn-Glycero-3-Phosphoglycerol, monosodium salt) and DOPE (1,2-dioleoyl-sn-Glycero-3-phoshoetanolamine) were both from Avanti Polar Lipids (Alabaster, USA) and of >99% purity. […] CF release from the liposomes was determined by monitoring the emitted fluorescence at 520 nm from a liposome dispersion (10 µM lipid in 10 mM Tris, pH 7.4). […]

[3] = system: E. coli; assay: FACS binding of TAMRA labeled peptide to E. coli; set-up: species or system Escherichia coli; settings: 3 μM TAMRA labeled peptide in human plasma
Protocol: as §1

Sequence: GGLIKTKRKRKKQRVKIAYEEIFVKNM [GGL27, C-terminal peptide of TFPI, plasmin-generated]
- binding of C1q to bacteria [1]: enhances; also recorded: enhanced binding of C1q
- formation of MAC [1]: enhances; also recorded: increased formation of MAC
- generation / binding of C3a [1]: enhances; also recorded: significant generation of C3a
- CF release from liposomes [2]: caused CF release
- share of the maximal CF release [2]: ~80%
- binding to bacteria [3]: avidly bound

Sequence: LIKTKRKRKKQRVKIAY [LIK17]
- CF release from liposomes [2]: caused CF release
- share of the maximal CF release [2]: ~80%
